# Read-outs that look alike come from different tables or passages of the source. Starred links: 1 amine or outer side, 2 acyl side, 3 side chain; linkers in the order of their positions; H or OH if unused. Positions of bridges follow the written chain, without caps; N, C: chain ends. Non-standard residues stand in square brackets, D forms with d. Residues, ends and D or L forms follow the SMILES beside them. Chains are numbered I, II in the order given. Actinocin(9to1) = Cc1c2oc3c(C)ccc(C(=O)[*:1])c3nc-2c(C(=O)[*:2])c(N)c1=O; NMeV = CN[C@H](C(=O)O)C(C)C; Sar = CNCC(=O)O
# Experiments:
# [1] = tested on: strains NRS106, NRS107, NRS128 and NRS129; assay: MIC determination, mutants purchased from NARSA; type: cell-based, Staphylococcus aureus; settings: for MIC: Staphylococcus aureus, read-out: MIC of the mutant
# Method: Four strains from NARSA (Network on Antimicrobial Resistance in Staphylococcus aureus) could be purchased. The strains NRS106, NRS107, NRS128 and NRS129 show resistances against the antibiotics gentamicin, mupirocin, erythromycin and chloramphenicol.
# (§1) The majority of mutants were obtained by selection of the S. aureus strain RN4220 on agar plates in presence of an antibiotic. Briefly, the minimal inhibitory concentration (“MIC”) of the wildtype strain RN4220 was determined. For this purpose a liquid culture with an OD of 0.5 was added as a dilution of 1:100 in Mueller-Hinton broth to each well of a 96-well plate containing a dilution series of a certain antibiotic. The 96-well plate was incubated at 37° C. overnight. The lowest antibiotic concentration where no growth of bacteria could be determined is defined as the MIC value of this strain.
# [2] = tested on: mutants obtained by selection of the S. aureus strain RN4220; assay: MIC determination, mutants obtained by selection on antibiotic agar; type: cell-based, Staphylococcus aureus; settings: for MIC: Staphylococcus aureus, read-out: MIC of the mutant; for MIC of the mutant: Table 1, mutant resistant to the antibiotic of the same line
# Method: as §1
# To select first-step mutants agar plates containing an antibiotic concentration of 0.5×-, 1×-, 2×-, 3×- and 5×MIC were prepared and approximately 1×10^8 cells were plated and incubated overnight. Colonies grown on the plate with the highest antibiotic concentration were subcultured in liquid MH-media containing the same concentration of antibiotic to avoid loss of resistance. This culture was used to prepare a 25% glycerol stock that is stored at −80° C. To test the stability of resistance each strain was subcultured again either in presence of an antibiotic or in media without any antibiotics. After that both cultures were plated on agar plates. In case of a stable mutation that leads to the resistance no difference in growth behavior of the liquid culture or the cultures plated on agar plates should be noticed. The MIC of the mutants was determined.
# After the successful selection of eight first-step mutants the experiment was repeated in a same manner as described above to obtain mutants having a resistance to much higher concentration of antibiotic. With the exception of the actinomycin D mutant, additional mutants were obtained. Again the MIC-values for the new mutants were determined.
# S. aureus strain RN4220 = assay: MIC determination, wildtype strain RN4220 (96-well dilution series, Mueller-Hinton broth); type: cell-based, Staphylococcus aureus; settings: for MIC: Staphylococcus aureus, RN4220
# Method: as §1
# [3] = tested on: ten strains of Staphylococcus aureus, each resistant to a different, known, antibiotic; assay: Small scale experiment: panel of ten resistant strains in a microplate; type: cell-based; settings: Example 1, FIG. 1
# Method: In a small scale experiment, ten strains of Staphylococcus aureus, each resistant to a different, known, antibiotic, were generated. These strains were added to the wells of a microplate. […] Thus, it was determined that each strain of Staphylococcus aureus was resistant to at least one of ten known antibiotics (FIG. 1).
# In this way, it was shown that linezolid was not part of the initial set of ten antibiotics. In other words, the panel of ten Staphylococcus aureus strains used allowed dereplication of the ten antibiotics with no need for analytical chemistry. This experiment establishes that the panel of ten strains can be scaled up to several thousand strains, which will be collectively resistant to as many known antibiotics, and screen sources of unknown compounds (e.g., microbial or eukaryotic cell spent media, cell and tissue extracts, combinatorial libraries, etc.). Using such a large scale screen allows identification of a source containing an antimicrobial activity that is unique from the thousands of known antibiotics, and thus a likely source of a novel antibiotic. Similarly, and using either microbial spent media or individual compounds from chemical libraries, a search can be performed for novel compounds with anticancer, anti-inflammatory, or other desired properties.
# [4] = Table 1, 37° C. overnight, read-out: MIC of wildtype RN4220
# [5] = Table 2, read-out: MIC of wilcitype RN4220
molecule,measurement,setting,value
CC[C@H]1OC(=O)[C@H](C)[C@@H](O[C@H]2C[C@@](C)(OC)[C@@H](O)[C@H](C)O2)[C@H](C)[C@@H](O[C@@H]2O[C@H](C)C[C@H](N(C)C)[C@H]2O)[C@](C)(O)C[C@@H](C)C(=O)[C@H](C)[C@@H](O)[C@]1(C)O [Erythromycin],MIC,[1],0.8 µg/mL
CO[C@@H]1[C@@H](OC(N)=O)[C@@H](O)[C@H](Oc2ccc3c(O)c(NC(=O)c4ccc(O)c(CC=C(C)C)c4)c(=O)oc3c2C)OC1(C)C [Novobiocin],MIC,[2],12.5 µg/mL
same,MIC,S. aureus strain RN4220; [4],0.05 µg/mL
[H]/N=C(/N)N[C@H]1[C@H](O)[C@@H](O)[C@H](O[C@@H]2O[C@@H](C)[C@](O)(C=O)[C@H]2O[C@@H]2O[C@@H](CO)[C@H](O)[C@@H](O)[C@@H]2NC)[C@@H](N/C(N)=N\[H])[C@@H]1O [Streptomycin],MIC,S. aureus strain RN4220; [4],25 µg/mL
C/C(=C\C(=O)OCCCCCCCCC(=O)O)C[C@@H]1OC[C@H](C[C@@H]2O[C@H]2[C@@H](C)[C@H](C)O)[C@@H](O)[C@H]1O [Mupirocin],MIC,[1],25 µg/mL
same,MIC,S. aureus strain RN4220; [5],500 µg/mL
CN(C)[C@@H]1C(=O)C(C(N)=O)=C(O)[C@@]2(O)C(=O)C3=C(O)c4c(O)cccc4[C@@](C)(O)[C@H]3C[C@@H]12 [Tetracyclin],MIC of the mutant,[2],3.9 µg/mL
same,MIC of wildtype RN4220,"S. aureus strain RN4220; Table 1, 37° C. overnight",0.1 µg/mL
O=C(N[C@H](CO)[C@H](O)c1ccc([N+](=O)[O-])cc1)C(Cl)Cl [Chloramphenicol],MIC,[1],12.5 µg/mL
same,MIC,S. aureus strain RN4220; [5],62.5 µg/mL
"Cc1c2oc3c(C)ccc(C(=O)N[C@@H]4C(=O)N[C@H](C(C)C)C(=O)N5CCC[C@H]5C(=O)N(C)CC(=O)N(C)[C@@H](C(C)C)C(=O)O[C@@H]4C)c3nc-2c(C(=O)N[C@@H]2C(=O)N[C@H](C(C)C)C(=O)N3CCC[C@H]3C(=O)N(C)CC(=O)N(C)[C@@H](C(C)C)C(=O)O[C@@H]2C)c(N)c1=O [Actinomycin D] (I: T[dV]P[Sar][NMeV] / II: T[dV]P[Sar][NMeV]; ester I:1-I:C, II:1-II:C; linker I:N-II:N via Actinocin(9to1))",MIC of the mutant,[2],12.48 µg/mL
same,MIC of wildtype RN4220,"S. aureus strain RN4220; Table 1, 37° C. overnight",1.56 µg/mL
CC(=O)NC[C@H]1CN(c2ccc(N3CCOCC3)c(F)c2)C(=O)O1 [linezolid],microbial growth in the wells containing the ten resistant strains,[3],suppressed the growth in all the wells
CO[C@H]1/C=C/O[C@@]2(C)Oc3c(C)c(O)c4c(O)c(c(/C=N/N5CCN(C)CC5)c(O)c4c3C2=O)NC(=O)/C(C)=C\C=C\[C@H](C)[C@H](O)[C@@H](C)[C@@H](O)[C@@H](C)[C@H](OC(C)=O)[C@@H]1C [Rifampicin],MIC,[2],250 µg/mL
same,MIC,S. aureus strain RN4220; [4],0.008 µg/mL
CC1(C)S[C@@H]2[C@H](NC(=O)[C@H](N)c3ccccc3)C(=O)N2[C@H]1C(=O)O [Ampicillin],MIC,[2],300 µg/mL
same,MIC,S. aureus strain RN4220; [4],0.2 µg/mL
CC1COc2c(N3CCN(C)CC3)c(F)cc3c(=O)c(C(=O)O)cn1c23 (centres unmarked) [Ofloxacin],MIC,[2],1.5 µg/mL
same,MIC,S. aureus strain RN4220; [4],0.4 µg/mL
Gentamicin,MIC of the mutant,"[1]; Table 2, NARSA strain named in the same line",0.8 µg/mL
same,MIC of wilcitype RN4220,S. aureus strain RN4220; Table 2,250 µg/mL
CN[C@H](CC(C)C)C(=O)N[C@H]1C(=O)N[C@@H](CC(N)=O)C(=O)N[C@H]2C(=O)N[C@H]3C(=O)N[C@H](C(=O)N[C@H](C(=O)O)c4cc(O)cc(O)c4-c4cc3ccc4O)[C@H](O)c3ccc(c(Cl)c3)Oc3cc2cc(c3O[C@@H]2O[C@H](CO)[C@@H](O)[C@H](O)[C@H]2O[C@H]2C[C@](C)(N)[C@H](O)[C@H](C)O2)Oc2ccc(cc2Cl)[C@H]1O [Vancomycin],MIC,[2],2000 µg/mL
same,MIC,S. aureus strain RN4220; [4],1.56 µg/mL
